Measured values as given in PubChem BioAssay AID1963435 (Molecular Pharmacology Branch, DTP, NCI, 2024).
“And” between values parts separate entries of the source, which are not always exact repeats. Equal values may be shown once.

System: PANC-1 complex spheroid growth, percent test/control
Assay: Anticancer human tumor PANC-1 cell line growth inhibition [Asc];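 also: spheroids exposed to agents for 7 days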;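 as to viability, T/C: percent viability relative to DMSO vehicle wells taken as 100%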
Settings: for viability, T/C: stronger effect = lower value
Outline: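 Stromal components (HUVEC and hMSC) are co-assembled with the cancer cells into multicellular spheroids. Drugs are then added singly or paired, at concentrations falling by half-log increments from a clinically achievable maximum, capped at 10 microM without known Cmax.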

[1] = curve of first compound, second compound 0.00949 µM
[2] = curve of first compound, second compound 0.03 µM
[3] = curve of first compound, second compound 0.0949 µM
[4] = curve of first compound, second compound 0.3 µM
[5] = curve of first compound, second compound 0.949 µM
[6] = curve of first compound, second compound 3 µM
[7] = second compound 0.00949 µM, first compound 0.00316 µM
[8] = second compound 0.00949 µM, first compound 0.01 µM
[9] = second compound 0.00949 µM, first compound 0.0316 µM
[10] = second compound 0.00949 µM, first compound 0.1 µM
[11] = second compound 0.00949 µM, first compound 0.316 µM
[12] = second compound 0.00949 µM, first compound 1 µM
[13] = second compound 0.03 µM, first compound 0.00316 µM
[14] = second compound 0.03 µM, first compound 0.01 µM
[15] = second compound 0.03 µM, first compound 0.0316 µM
[16] = second compound 0.03 µM, first compound 0.1 µM
[17] = second compound 0.03 µM, first compound 0.316 µM
[18] = second compound 0.03 µM, first compound 1 µM
[19] = second compound 0.0949 µM, first compound 0.00316 µM
[20] = second compound 0.0949 µM, first compound 0.01 µM
[21] = second compound 0.0949 µM, first compound 0.0316 µM
[22] = second compound 0.0949 µM, first compound 0.1 µM
[23] = second compound 0.0949 µM, first compound 0.316 µM
[24] = second compound 0.0949 µM, first compound 1 µM
[25] = second compound 0.3 µM, first compound 0.00316 µM
[26] = second compound 0.3 µM, first compound 0.01 µM
[27] = second compound 0.3 µM, first compound 0.0316 µM
[28] = second compound 0.3 µM, first compound 0.1 µM
[29] = second compound 0.3 µM, first compound 0.316 µM
[30] = second compound 0.3 µM, first compound 1 µM
[31] = second compound 0.949 µM, first compound 0.00316 µM
[32] = second compound 0.949 µM, first compound 0.01 µM
[33] = second compound 0.949 µM, first compound 0.0316 µM
[34] = second compound 0.949 µM, first compound 0.1 µM
[35] = second compound 0.949 µM, first compound 0.316 µM
[36] = second compound 0.949 µM, first compound 1 µM
[37] = second compound 3 µM, first compound 0.00316 µM
[38] = second compound 3 µM, first compound 0.01 µM
[39] = second compound 3 µM, first compound 0.0316 µM
[40] = second compound 3 µM, first compound 0.1 µM
[41] = second compound 3 µM, first compound 0.316 µM
[42] = second compound 3 µM, first compound 1 µM

`CNC(C)C(=O)NC1CN(S(=O)(=O)c2cccc(S(=O)(=O)N3CCC4CCC(C(=O)NC(c5ccccc5)c5ccccc5)N4C(=O)C(NC(=O)C(C)NC)C3)c2)CCC2CCC(C(=O)NC(c3ccccc3)c3ccccc3)N2C1=O` (stereo unspecified) + CCN1C(C(=O)NC23CCC(C(=O)O)(CC2)CC3)C(c2cccc(Cl)c2F)C2(C(=O)Nc3cc(Cl)ccc32)C12CCCCC2 showed an IC50 [1] greater than 1 µM, an IC50 [2] greater than 1 µM and an IC50 [3] greater than 1 µM. For the same molecule, the IC50 [4] was greater than 1 µM, the IC50 [5] was greater than 1 µM and the IC50 [6] was greater than 1 µM. For the same molecule, the viability, T/C [7] was 104%, the viability, T/C [8] was 96.6% and the viability, T/C [9] was 103%. It also gave a viability, T/C [10] of 89.4%, a viability, T/C [11] of 97% and a viability, T/C [12] of 86.5%. The viability, T/C [13] was 103%, the viability, T/C [14] was 93.9% and the viability, T/C [15] was 90.9%. The viability, T/C [16] was 93.8%, the viability, T/C [17] was 97.2% and the viability, T/C [18] was 85.4%. For the same molecule, the viability, T/C [19] was 90.3%, the viability, T/C [20] was 96.9% and the viability, T/C [21] was 89.4%. The viability, T/C [22] was 91.2%, the viability, T/C [23] was 92.2% and the viability, T/C [24] was 86.8%. For the same molecule, the viability, T/C [25] was 114%, the viability, T/C [26] was 94.1% and the viability, T/C [27] was 90.7%. The viability, T/C [28] was 101%, the viability, T/C [29] was 91.3% and the viability, T/C [30] was 90.6%. For the same molecule, the viability, T/C [31] was 106%, the viability, T/C [32] was 100% and the viability, T/C [33] was 106%. The viability, T/C [34] was 97.8%, the viability, T/C [35] was 100% and the viability, T/C [36] was 93.2%. For the same molecule, the viability, T/C [37] was 113%, the viability, T/C [38] was 111% and the viability, T/C [39] was 108%. It also gave a viability, T/C [40] of 103%, a viability, T/C [41] of 109% and a viability, T/C [42] of 89.1%.
With `CCN1C(C(=O)NC23CCC(C(=O)O)(CC2)CC3)C(c2cccc(Cl)c2F)C2(C(=O)Nc3cc(Cl)ccc32)C12CCCCC2` (stereo unspecified) the viability, T/C (compound 0.00949 µM) was 103% [middle of 9 runs], the viability, T/C (compound 0.03 µM) was 102% [middle of 9 runs] and the viability, T/C (compound 0.0949 µM) was 103% [middle of 9 runs]. For the same molecule, the viability, T/C (compound 0.3 µM) was 100% [middle of 9 runs], the viability, T/C (compound 0.949 µM) was 103% [middle of 9 runs] and the viability, T/C (compound 3 µM) was 112% [middle of 9 runs]. It also gave an IC50 (compound alone, run of 11/07/2022) greater than 3 µM and an IC50 (curve of compound) greater than 3 µM.
`C=C(F)C(=O)N1CCN(c2nc(OCC3CCCN3C)nc3c2CCN(c2cccc4cccc(Cl)c24)C3)CC1CC#N` (stereo unspecified) + Cc1c(S(C)(=O)=O)c(-c2cc(F)cc(N3CCN(c4ccc(NS(=O)(=O)c5ccc(NC(CCN6CCC(C(=O)OCCCP(=O)(O)O)CC6)CSc6ccccc6)c(S(=O)(=O)C(F)(F)F)c5)cc4)CC3)c2)c(-c2ccc(Cl)cc2)n1C(C)C showed an IC50 (curve of first compound, second compound 0.0316 µM) of 5.83 µM, an IC50 (curve of first compound, second compound 0.1 µM) of 5.83 µM and an IC50 (curve of first compound, second compound 0.316 µM) of 5.43 µM. The IC50 (curve of first compound, second compound 1 µM) was 5.24 µM, the IC50 (curve of first compound, second compound 3.16 µM) was 5 µM and the IC50 (curve of first compound, second compound 10 µM) was 5.88 µM. For the same molecule, the viability, T/C (second compound 0.0316 µM, first compound 0.0316 µM) was 94.6%, the viability, T/C (second compound 0.0316 µM, first compound 0.1 µM) was 95.8% and the viability, T/C (second compound 0.0316 µM, first compound 0.316 µM) was 106%. It also gave a viability, T/C (second compound 0.0316 µM, first compound 1 µM) of 100%, a viability, T/C (second compound 0.0316 µM, first compound 3.16 µM) of 92.4% and a viability, T/C (second compound 0.0316 µM, first compound 10 µM) of 12.5%. The viability, T/C (second compound 0.1 µM, first compound 0.0316 µM) was 97.4%, the viability, T/C (second compound 0.1 µM, first compound 0.1 µM) was 87.6% and the viability, T/C (second compound 0.1 µM, first compound 0.316 µM) was 113%. It also gave a viability, T/C (second compound 0.1 µM, first compound 1 µM) of 103%, a viability, T/C (second compound 0.1 µM, first compound 3.16 µM) of 98% and a viability, T/C (second compound 0.1 µM, first compound 10 µM) of 7.53%. It also gave a viability, T/C (second compound 0.316 µM, first compound 0.0316 µM) of 101%, a viability, T/C (second compound 0.316 µM, first compound 0.1 µM) of 101% and a viability, T/C (second compound 0.316 µM, first compound 0.316 µM) of 109%. It also gave a viability, T/C (second compound 0.316 µM, first compound 1 µM) of 103%, a viability, T/C (second compound 0.316 µM, first compound 3.16 µM) of 91.3% and a viability, T/C (second compound 0.316 µM, first compound 10 µM) of 3.26%. For the same molecule, the viability, T/C (second compound 1 µM, first compound 0.0316 µM) was 97.8%, the viability, T/C (second compound 1 µM, first compound 0.1 µM) was 98.2% and the viability, T/C (second compound 1 µM, first compound 0.316 µM) was 117%. The viability, T/C (second compound 1 µM, first compound 1 µM) was 107%, the viability, T/C (second compound 1 µM, first compound 3.16 µM) was 88.1% and the viability, T/C (second compound 1 µM, first compound 10 µM) was 1.2%. For the same molecule, the viability, T/C (second compound 3.16 µM, first compound 0.0316 µM) was 104%, the viability, T/C (second compound 3.16 µM, first compound 0.1 µM) was 113% and the viability, T/C (second compound 3.16 µM, first compound 0.316 µM) was 114%. The viability, T/C (second compound 3.16 µM, first compound 1 µM) was 114%, the viability, T/C (second compound 3.16 µM, first compound 3.16 µM) was 80% and the viability, T/C (second compound 3.16 µM, first compound 10 µM) was 4.62%. The viability, T/C (second compound 10 µM, first compound 0.0316 µM) was 181%, the viability, T/C (second compound 10 µM, first compound 0.1 µM) was 180% and the viability, T/C (second compound 10 µM, first compound 0.316 µM) was 189%. For the same molecule, the viability, T/C (second compound 10 µM, first compound 1 µM) was 194%, the viability, T/C (second compound 10 µM, first compound 3.16 µM) was 108% and the viability, T/C (second compound 10 µM, first compound 10 µM) was 0.69%.
For `CCN1CCN(Cc2ccc(Nc3ncc(F)c(-c4cc(F)c5nc(C)n(C(C)C)c5c4)n3)nc2)CC1`, the viability, T/C (compound 0.00316 µM) was 98.9% and 103% and 108%, the viability, T/C (compound 0.01 µM) was 107% and 98.8% and 97.8% and the viability, T/C (compound 0.0316 µM) was 111% (2×) and 121%. The viability, T/C (compound 0.1 µM) was 114% and 116% and 118%, the viability, T/C (compound 0.316 µM) was 122% and 124% and 128% and the viability, T/C (compound 1 µM) was 135% and 128% and 142%. It also gave an IC50 (curve of compound) greater than 1 µM.
Molecule `O=C(c1ccc(F)c(F)c1Nc1ccc(I)cc1F)N1CC(O)([C@@H]2CCCCN2)C1` + CCN1C(C(=O)NC23CCC(C(=O)O)(CC2)CC3)C(c2cccc(Cl)c2F)C2(C(=O)Nc3cc(Cl)ccc32)C12CCCCC2 has an IC50 [1] greater than 1 µM, an IC50 [2] greater than 1 µM and an IC50 [3] greater than 1 µM. For the same molecule, the IC50 [4] was greater than 1 µM, the IC50 [5] was greater than 1 µM and the IC50 [6] was greater than 1 µM. For the same molecule, the viability, T/C [7] was 90.7%, the viability, T/C [8] was 93.4% and the viability, T/C [9] was 87.1%. For the same molecule, the viability, T/C [10] was 81.8%, the viability, T/C [11] was 93.1% and the viability, T/C [12] was 93.7%. The viability, T/C [13] was 90.5%, the viability, T/C [14] was 98.3% and the viability, T/C [15] was 98.5%. The viability, T/C [16] was 87.3%, the viability, T/C [17] was 95% and the viability, T/C [18] was 97.4%. For the same molecule, the viability, T/C [19] was 93.9%, the viability, T/C [20] was 97% and the viability, T/C [21] was 88.4%. It also gave a viability, T/C [22] of 84.2%, a viability, T/C [23] of 92.4% and a viability, T/C [24] of 104%. For the same molecule, the viability, T/C [25] was 97.5%, the viability, T/C [26] was 89.4% and the viability, T/C [27] was 89.6%. For the same molecule, the viability, T/C [28] was 91.7%, the viability, T/C [29] was 100% and the viability, T/C [30] was 93.8%. For the same molecule, the viability, T/C [31] was 100%, the viability, T/C [32] was 104% and the viability, T/C [33] was 91.8%. It also gave a viability, T/C [34] of 105%, a viability, T/C [35] of 104% and a viability, T/C [36] of 99%. For the same molecule, the viability, T/C [37] was 110%, the viability, T/C [38] was 115% and the viability, T/C [39] was 106%. It also gave a viability, T/C [40] of 105%, a viability, T/C [41] of 109% and a viability, T/C [42] of 112%.
